Measurements reported in US20170304386A1, “METHOD FOR INHIBITING SURVIVAL, TUMORIGENESIS AND METASTASIS OF CANCER CELLS AND/OR CANCER STEM CELLS” (priority 2014, published 2017).
“Also recorded” adds a separate entry of the source. Residues, ends and D or L forms follow the SMILES beside them. *: point of attachment. Cbz = O=C(OCc1ccccc1)*

Assays:
laminin 5 = assay: Western blot of laminin 5 protein with cycloheximide with or without MG132; assay type: cell-based, human; settings: TICs with Col17a1 knockdown; 50 μg/ml cycloheximide; 10 μM MG132; 6, 12, 24, 36 hours
Description: FIGS. 5a-5k show the Col XVII-mediated suspension survival ability depends on laminin 5 and FAK activation. FIGS. 5a and 5b show the Bulk cancer cells (Bulk) and spheroid culture-enriched TICs (SPH) were cultured in spheroid condition for 10 h, followed by FIG. 5a (western blot assay), and FIG. 5b (immunofluorescence) followed by examination with a confocal microscope. […] FIGS. 5e-5f show the spheroid cultures of cells overexpressed with control shRNAs (CTR) or different Col17a1 shRNAs, si(1) and si(2) were assayed for mRNA and protein levels (FIG. 5e), and immunostaining (CCS)(FIG. 5f) followed by examination with a confocal microscope. FIG. 5g (top), western blot analysis for spheroid culture-enriched TICs expressing control shRNAs (CTR) or Col17a1 shRNAs, si(1) or si(2), treated with 50 μg/ml cycloheximide in the presence or absence of 10 μM MG132 for 6, 12, 24, and 36 hours. FIG. 5g (bottom), graphical representation of the relative band intensities of laminin 5 protein. […]
Cells were lysed and protein was extracted using M-PER (Pierce, Rockford, Ill.) plus protease inhibitor cocktail (Pierce), and the protein concentrations were determined by the BCA assay (Pierce). […] The membrane was then hybridized with primary antibodies followed by corresponding secondary antibodies, and then detected using a chemiluminescence assay (Millipore, Billerica, Mass.). […]

A549 cells [1] = assay: Invasion assay (Matrigel Invasion Chambers); assay type: cell-based, human; settings: PMA 100 nM, 1,10-phenanthroline 20 μM
Description: (§1) Knockdown of ADAMS or ADAM10 inhibited shedding of Collagen XVII and reduced laminin-5 expression in A549 cells cultured in spheroid culture.
Cell invasion assays were performed using 24-well BD Biocoat Matrigel Invasion Chambers (Becton, Dickinson and Company, San Jose, Calif.) according to the manufacturer's instructions. In brief, cells were seeded into upper inserts (2.5×10^4 cells/insert) in DMEM supplemented with 0.1% bovine serum albumin (BSA). Outer wells were filled with DMEM containing 10% FBS as the chemoattractant. After 24 hours of incubation, the membranes with invaded cells were stained with Giemsa (Sigma), washed and mounted on slides. The entire membrane with invading cells was counted by light microscopy. Data are expressed as the number of invaded cells/well. Each assay was performed in triplicate and repeated at least twice.

A549 cells [2] = assay: Migration assay (Boyden chambers); assay type: cell-based, human; settings: PMA 100 nM, 1,10-phenanthroline 20 μM
Description: as §1
Cell migration assay was performed using Boyden chambers. At the end of the assay, cells in the upper chamber and on the upper filter surface were removed, whereas cells on the lower filter surface were fixed with ethanol and stained with Giemsa (Sigma-Aldrich). The number of migrating cells was determined by counting cells in 10 random fields/filter at 200× magnification. Data were calculated as a percentage of migrated cells in the absence of chemoattractant or adherent culture, which was considered as 100%. All experiments were performed in triplicate.

laminin-5 = assay: Western blot of laminin-5 level and degradation in A549 spheroid culture; assay type: cell-based, human; settings: for level of laminin 5: A549 spheroid culture 12 days, PMA 100 nM, 1,10-phenanthroline 20 μM; for laminin 5 protein half-life / degradation: A549 suspension cells, spheroid medium containing cycloheximide 50 μg/ml
Description: as §1
(§2) The lung cancer cell lines A549 and CL1-1 were obtained from the American Type Culture Collection. Cells were grown in Dulbecco's Modified Eagle Medium (DMEM) (Gibco, Grand Island, N.Y.) containing 10 units/ml penicillin, 10 μg/ml streptomycin, 2 mM glutamine, and 10% fetal bovine serum (FBS; Gibco), in a 37° C. humidified atmosphere with 5% CO2. For enrichment of cancer stem-like cells (CSCs) in spheroid culture, lung cancer cells were suspended in tumor sphere medium consisting of serum-free DMEM/F12 (Gibco), N2 supplement (Gibco), human recombinant epidermal growth factor (EGF) (20 ng/ml, PeproTech, Rocky Hill, N.J.), and basic fibroblastic growth factor (bFGF) (10 ng/ml, PeproTech). Cell colonies >100 μm in diameter and >50% in area showing 3-dimensional structure and blurred cell margins were defined as spheres. Sphere numbers were counted at day 12 of culture. Cells were harvested and protein lysates were collected for further experiments. Treatment reagents included FAK inhibitor (20 μM) (Calbiochem, San Diego, Calif.; Merk, Schwalbach, Germany), LY294002 (10 μM) (Calbiochem), 1,10-phenanthroline (20 μM) (Sigma-Aldrich; St. Louis, Mo.), PMA (100 nM) (Sigma-Aldrich) and Cyclohexamide (50 μg/ml) (Calbiochem).
(§3) Cell extracts were prepared with M-PER (Pierce, Rockford, Ill.) plus protease inhibitor cocktail (Halt™; Pierce) and protein concentrations were determined using the bicinchoninic acid (BCA) assay (Pierce). Aliquots of protein lysates were separated on SDS-10% polyacrylamide gels and transferred to PVDF membrane filters, followed by blocking with 5% blotting grade milk (Bio-Rad, Hercules, Calif.) in TBST (20 mM Tris-HCl [pH 7.6], 137 mM NaCl, 1% Tween 20). Membranes were then probed with the indicated primary antibodies, reacted with the corresponding secondary antibodies, and results detected using a chemiluminescence assay (Millipore, Billerica, Mass.). Membranes were exposed to X-ray film to visualize the bands (Amersham Pharmacia Biotech, Piscataway, N.J.).

A549 cells [3] = assay: Wound healing assay; assay type: cell-based, human; settings: PMA 100 nM, 1,10-phenanthroline 20 μM
Description: as §1
An in vitro model of the ability of A549 and CL1-1 lung cancer cells to migrate in a monolayer culture was used to measure wound healing ability. Lung cancer cells were seeded into 6-well plates and incubated overnight. The cells were disrupted by scraping them with a […] pipette tip. […] The percent of wounded area filled was calculated as follows: [(mean wound width-mean remaining width)/mean wound width]×100(%).

Col XVII = assay: Immunoblot of Col XVII shedding in A549 spheroid culture; assay type: cell-based, human; settings: A549 spheroid culture 12 days; PMA 100 nM, 1,10-phenanthroline 20 μM
Description: as §1
The lung cancer cell lines A549 and CL1-1 were obtained from the American Type Culture Collection. Cells were grown in Dulbecco's Modified Eagle Medium (DMEM) (Gibco, Grand Island, N.Y.) containing 10 units/ml penicillin, 10 μg/ml streptomycin, 2 mM glutamine, and 10% fetal bovine serum (FBS; Gibco), in a 37° C. humidified atmosphere with 5% CO2. For enrichment of cancer stem-like cells (CSCs) in spheroid culture, lung cancer cells were suspended in tumor sphere medium consisting of serum-free DMEM/F12 (Gibco), N2 supplement (Gibco), human recombinant epidermal growth factor (EGF) (20 ng/ml, PeproTech, Rocky Hill, N.J.), and basic fibroblastic growth factor (bFGF) (10 ng/ml, PeproTech). […] Sphere numbers were counted at day 12 of culture. […]
Cell extracts were prepared with M-PER (Pierce, Rockford, Ill.) plus protease inhibitor cocktail (Halt™; Pierce) and protein concentrations were determined using the bicinchoninic acid (BCA) assay (Pierce). […] Membranes were then probed with the indicated primary antibodies, reacted with the corresponding secondary antibodies, and results detected using a chemiluminescence assay (Millipore, Billerica, Mass.). […]

EMT markers = assay: Western blot of Snail and EMT markers in A549 spheroid culture; assay type: cell-based, human; settings: PMA 100 nM, 1,10-phenanthroline 20 μM
Description: as §1, §2, §3

[4] = test system: spheres formed by HT29 spheroid culture; assay: Live/Dead analysis of spheres pre-treated with enzymes, then suspension culture; assay type: cell-based, human; settings: pre-treatment of spheres with enzyme, then suspension culture 24 hours
[5] = test system: culture-enriched TICs (SPH) of HT29 and ALDH+ cells isolated from HCW primary liver metastasis cancer cells and fresh cancer cells; assay: TUNEL assay of TICs cultured in spheroid (suspension) condition; assay type: cell-based, human; settings: spheroid condition 24 hours; S3I-201 50 μM
Description: FIGS. 8a-8f show the suspension survival ability determines tumourigenicity and corresponds to clinical tumour staging and survival. […] FIGS. 8b and 8c show the culture-enriched TICs (SPH) of HT29 and ALDH^+ cells isolated from HCW primary liver metastasis cancer cells and fresh cancer cells were cultured in spheroid condition for 24 hours with treatment of STAT3 inhibitor (S3I-201, 50 μM) or 1:25 dilution of the 0.25 mg/ml anti-Col XVII antibody, followed by TUNEL assay. (Ab-1, Abcam; Ab-2, Pierce). […] FIG. 8e (top), representative pictures of positive staining of colorectal tumour tissues (different stages) are shown, FIG. 8e (bottom), quantification and the correlation between protein expression and tumour stages was subsequently determined. The results are expressed as percentage of DAB positive cells and every single plot represents a patient. The median is shown as a single black line. […] The expression of pS727STAT≧40% or Col XVII 50% was regarded as positive. Asterisks indicate significant differences determined by Fisher's exact test, one-way ANOVA, and log-rank test. […]
Detection of apoptosis was performed (Roche Molecular Biochemicals, Indianapolis, Ind.). […] Immunofluorescence is observed with fluorescence microscope.

enriched TICs (HT29) = assay: Tumourigenicity of enriched TICs (xenograft transplantation); assay type: in vivo, athymic nude mice; settings: TICs directly treated with S3I-201 50 μM, or S3I-201 5 mg/kg intravenously post injection of TICs
Description: FIGS. 8a-8f show the suspension survival ability determines tumourigenicity and corresponds to clinical tumour staging and survival. […] FIGS. 8b and 8c show the culture-enriched TICs (SPH) of HT29 and ALDH^+ cells isolated from HCW primary liver metastasis cancer cells and fresh cancer cells were cultured in spheroid condition for 24 hours with treatment of STAT3 inhibitor (S3I-201, 50 μM) or 1:25 dilution of the 0.25 mg/ml anti-Col XVII antibody, followed by TUNEL assay. (Ab-1, Abcam; Ab-2, Pierce). […] FIG. 8e (top), representative pictures of positive staining of colorectal tumour tissues (different stages) are shown, FIG. 8e (bottom), quantification and the correlation between protein expression and tumour stages was subsequently determined. The results are expressed as percentage of DAB positive cells and every single plot represents a patient. The median is shown as a single black line. […] The expression of pS727STAT≧40% or Col XVII 50% was regarded as positive. Asterisks indicate significant differences determined by Fisher's exact test, one-way ANOVA, and log-rank test.
The protocols were approved by the Institutional Animal Committee of Taipei Veterans General Hospital. […] Tumour cells were injected subcutaneously (s.c.) and tumour growth was monitored every week for up to 3 months. […]

Compound | invasion (A549 cells [1]) | cell migration (A549 cells [2]) | level of laminin 5 (laminin-5) | laminin 5 protein half-life / degradation (laminin-5) | wound closure (A549 cells [3]) | shedding of COL XVII (Col XVII) | EMT markers (EMT markers) | expression of Snail (EMT markers) | expression of epithelial marker E-cadherin (EMT markers) | expression of mesenchymal markers (EMT markers) | further results
CC(C)C[C@@H](C=O)NC(=O)[C@H](CC(C)C)NC(=O)[C@H](CC(C)C)NC(=O)OCc1ccccc1 [MG132] (Cbz-Leu-Leu-Leu-aldehyde) |  |  |  |  |  |  |  |  |  |  | laminin 5 protein level (laminin 5): restored
CCCCCCCCCCCCCC(=O)O[C@@H]1[C@@H](C)[C@@]2(O)[C@@H](C=C(CO)C[C@]3(O)C(=O)C(C)=C[C@@H]23)[C@@H]2C(C)(C)[C@]12OC(C)=O [PMA] | enhanced | enhanced | positively; also recorded: enhanced | longer half-life; also recorded: decreased degradation | enhanced | increased; also recorded: stimulated | activated | enhanced | decreased | increased | 
chymotrypsin |  |  |  |  |  |  |  |  |  |  | cell death in suspension culture (Live/Dead analysis) [4]: cause cell death
c1cnc2c(c1)ccc1cccnc12 [1,10-phenanthroline] | reduced | reduced | negatively | degraded faster | reduced | decreased | reduced | reduced | increased | decreased | 
Cc1ccc(S(=O)(=O)OCC(=O)Nc2ccc(C(=O)O)c(O)c2)cc1 [S3I-201] |  |  |  |  |  |  |  |  |  |  | killing of TICs in suspension culture (TUNEL assay) [5]: killed TICs; tumour initiation (enriched TICs (HT29)): inhibited tumour initiation
